Laboratory results: patent publication US20260325504A1, “Genetically Engineered Human Pituitary Corticotroph Tumor Organoids Exhibit Divergent Responses to Selective Glucocorticoid Receptor Modulators” (Corcept Therapeutics Incorporated, priority 2022, published 2026)
Entries after “also recorded” stand apart in the source; their conditions may differ.

Columns and labels:
FKBP5 = FKBP5 expression (GR target gene, qRT-PCR) in PitNET organoids; type: cell-based, human; settings: 48 h, FIG. 16A-C; for differential expression of FKBP5: PitNET organoids (iPSCctrl, iPSCUSP48MV, iPSCUSP8)
Protocol: Sonic Hedgehog (SHH) was withdrawn from the organoid growth media 16 hours prior to treatment. The experimental treatment groups included: vehicle (Veh), mifepristone (500 nM, Selleckchem S2606), GANT61 (5 μM, Stemcell Technologies 73692), ketoconazole (Keto, 10 μM, Selleckchem S1353), pasireotide (Pas, 100 nM, Target Mol TP2207-SB001), octreotide (Oct, 100 nM, Selleckchem P1017), mifepristone plus GANT61, mifepristone plus Keto, mifepristone plus Pas, relacorilant (500 nM, Corcept Therapeutics CORT125134), relacorilant plus Pas, relacorilant plus Oct, or dexamethasone (Dexa, 100 nM, SIGMA S4902). In the combination treatments, cultures were pretreated with the GANT61, Keto, Pas or Oct for 2 hours prior to treatment with mifepristone or Rela. PitNET tissue derived organoids hPITO36, hPITO37, hPITO38, hPITO39, and hPITO40 were treated with the following experimental conditions: Vehicle (1), pasireotide (2), relacorilant (3), relacorilant & pasireotide (4), mifepristone (5), mifepristone & pasireotide (6). The IC50 values used for each hPITO line for each drug were determined based on dose responses (FIG. 12). All organoid cultures were treated for 48 hours prior to analysis.
RNA was extracted from PitNET tissue or iPSC generated organoids using TRI Reagent® (Molecular Research Center Inc TR118) and the High Capacity cDNA Reverse Transcription Kit (Applied Biosystems, Foster City, CA) was used for cDNA synthesis of RNA following the recommended protocol. For each sample, 60 ng RNA was reverse transcribed to yield approximately […] total cDNA that was then used for the qRT-PCR. Pre-designed real-time polymerase chain reaction assays were purchased for the following genes: TPit (Thermo Fisher Scientific 4331182 Hs00193027), SF1 (Thermo Fisher Scientific 4331182 Hs00610436), SSTR2 (Thermo Fisher Scientific 4331182 Hs00265624_s1), SSTR5 (Thermo Fisher Scientific 4331182 Hs00990407_s1), POMC (Thermo Fisher Scientific 4331182 Hs01596743_ml), hPRT (Thermo Fisher Scientific 4331182 Hs02800695_ml), and FKBP5 (Thermo Fisher Scientific 4331182 Hs01561006_m1). Polymerase chain reaction amplifications were performed in a total volume of 20 μL containing 20× TaqMan Expression Assay primers, 2× TaqMan Universal Master Mix (Applied Biosystems, TaqMan® Gene Expression Systems), and cDNA template. Each polymerase chain reaction amplification was performed in triplicate wells in a StepOne Real-Time PCR System (Applied Biosystems) by using the following conditions: 500C 2 minutes, 95° C. […] Fold change was calculated as the following: (Ct-Ct high)=n target, 2ntarget/2nHPRT=fold change where Ct=threshold cycle. The results were expressed as average fold change in or differential gene expression relative to control, with HPRT used as an internal control according to Livak and Schmittgen.

PitNET organoids = experiment: PitNET organoid proliferation, apoptosis and cell death (summary); type: cell-based, human; settings: for tumor cell apoptosis / cell death: PitNET organoids
Protocol: iPSCs were stained for pituitary specific hormones including luteinizing hormone (LH), follicle-stimulating hormone (FSH), growth hormone (GH), prolactin (PRL), ACTH, cytokeratin 8/18 (CAM5.2), pituitary transcription factor PIT-1 and neuroendocrine marker Synaptophysin (Table 5). Cultures were immunostained for proliferation marker EdU (Click-IT EdU Alexa Fluor 555 Imaging Kit, Thermo Fisher Scientific C10338). Antibody dilutions were determined based on manufacturer guidelines and antibody titration (Table 5). Staining was conducted according to previously published protocols. Briefly, organoids and iPSCs grown in 8-well glass bottom chamber slides were fixed using 3.7% formaldehyde, washed with DPBS, permeabilized with 0.5% Triton X-100 (SIGMA X-100, PBS-T, 20 min at room temperature), washed with 0.01% PBS-T, and blocked with 2% donkey serum (Jackson Immuno Research 017-000-121) for 1 hour at room temperature. After blocking, primary antibodies were added and incubated overnight at 4° C. […] Fluorescence intensity was quantified as the percentage of marker-positive cells versus total cells, using Nikon Elements Software (Version 5.21.05). Proliferation for each iPSC line was quantified as the percentage of EdU-positive cells versus total cells.
Nuclear Morphometric Analysis (NMA) using treated organoids was performed based on a published protocol that measures cell viability based on the changes in nuclear morphology of the cells using nuclear stain Hoechst or DAPI [31]. Images of organoid nuclei were analyzed using the ImageJ Nuclear Irregularity Index (NII) plugin for key parameters that included cell area, radius ratio, area box, aspect, and roundness. Using the published spreadsheet template, the NII of each cell was calculated with the following formula: NII=Aspect−Area Box+Radius Ratio+Roundness. […] The percentage of cells in each NII classification category were calculated and plotted as a histogram using GraphPad Prism. […]

Compound	differential expression of FKBP5 (FKBP5)	PitNET organoid proliferation (PitNET organoids; compared to relacorilant)	magnitude of FKBP5 inhibition, compared to mifepristone (FKBP5; PitNET organoids)	tumor cell apoptosis / cell death (PitNET organoids)	tumor cell apoptosis / cell death (PitNET organoids; listed as Relacorilant)
CC#C[C@]1(O)CC[C@H]2[C@@H]3CCC4=CC(=O)CCC4=C3[C@@H](c3ccc(N(C)C)cc3)C[C@@]21C [mifepristone, 11β-(4-dimethylaminophenyl)-17ß-hydroxy-17α-(1-propynyl)-estra-4,9-dien-3-one]	significantly reduced	preferentially induced the expression of SSTR2, ACTH secretion and PitNET organoid proliferation	–	–	–
Cn1cc(S(=O)(=O)N2CCC3=Cc4c(cnn4-c4ccc(F)cc4)C[C@]3(C(=O)c3cc(C(F)(F)F)ccn3)C2)cn1 [relacorilant, (R)-(1-(4-fluorophenyl)-6-((1-methyl-1H-pyrazol-4-yl)sulfonyl)-4,4a,5,6,7,8-hexahydro-1H-pyrazolo[3,4-g]isoquinolin-4a-yl) (4-(trifluoromethyl)pyridin-2-yl) methanone]	significantly reduced	–	significantly greater	induced SSTR5 expression and PitNET organoid apoptosis; also recorded: induced PitNET cell death	induces SSTR5 and tumor cell apoptosis
